These results are taken from article PMC5562305, “Impact of novel palmitoylated prolactin-releasing peptide analogs on metabolic changes in mice with diet-induced obesity” (PLoS ONE, 2017).

Non-standard residues stand in square brackets, D forms with d. Residues, ends and D or L forms follow the SMILES beside them. NMeF = CN[C@@H](Cc1ccccc1)C(=O)O

The assay has as its target T1, human NPFF2 (Homo sapiens, UniProt Q9Y5X5).
T1 construct: purchased Perkin Elmer; host or cells: CHO-K1 cell membranes
The assay can be described thus: Competitive binding of 125I-1DMe to human NPFF2 receptor membranes. The note with it: membranes of CHO-K1 cells overexpressing NPFF2, 0.1 nM radioligand, Cheng-Prusoff; mean ± SEM; SEM. The method, then: CHO-K1 cells expressing the GPR10 receptor (Thermo Fisher Scientific Inc., Waltham, MA, USA) were grown according to the manufacturer's instructions. Saturation and competitive binding experiments were performed according to the methods of Motulsky and Neubig. […] The experiments were performed on plated cells that were incubated for 60 min at 25°C. Non-specific binding was determined using 10^−5 M PrRP31. The binding assays involving human NPFF2 receptor membranes obtained from Perkin Elmer were performed as described in [18].
Data are presented as the means ± SEM. The competitive binding curves were plotted using GraphPad software (San Diego, CA, USA), and the best fits were compared for single-binding-site models (IC50 values were obtained from nonlinear regression analysis). Inhibition constants (Ki) were calculated from the IC50 values using the Cheng-Prusoff equation [23]. The concentration of the radioligand was 0.1 nM for cell membranes of CHO-K1 cells overexpressing NPFF2 and 0.03 nM for CHO-K1 cells overexpressing GPR10.

T1 sequence (Q9Y5X5 whole entry): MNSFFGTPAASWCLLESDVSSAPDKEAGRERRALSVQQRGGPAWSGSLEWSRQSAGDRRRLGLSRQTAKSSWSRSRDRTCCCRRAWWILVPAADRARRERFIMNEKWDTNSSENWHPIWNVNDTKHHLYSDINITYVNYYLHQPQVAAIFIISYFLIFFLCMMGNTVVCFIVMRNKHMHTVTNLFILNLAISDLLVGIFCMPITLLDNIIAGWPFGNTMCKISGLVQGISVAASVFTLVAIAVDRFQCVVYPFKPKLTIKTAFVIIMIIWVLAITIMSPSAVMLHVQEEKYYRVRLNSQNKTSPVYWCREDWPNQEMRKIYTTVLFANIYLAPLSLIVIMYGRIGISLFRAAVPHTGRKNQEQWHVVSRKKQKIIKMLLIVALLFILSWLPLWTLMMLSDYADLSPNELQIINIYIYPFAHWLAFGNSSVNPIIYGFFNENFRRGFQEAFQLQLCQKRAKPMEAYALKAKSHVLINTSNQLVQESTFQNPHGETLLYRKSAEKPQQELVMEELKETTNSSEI

`CC(C)C[C@H](NC(=O)[C@H](N)Cc1ccc(O)cc1)C(=O)N(C)[C@@H](Cc1ccccc1)C(=O)N[C@@H](CCC(N)=O)C(=O)N1CCC[C@H]1C(=O)N[C@@H](CCC(N)=O)C(=O)N[C@@H](CCCN=C(N)N)C(=O)N[C@@H](Cc1ccccc1)C(N)=O` [1DMe, reference compound] (H-[dY]L[NMeF]QPQRF-NH2) returned a Ki of 1.8 ± 0.54 nM. For `CC[C@H](C)[C@H](NC(=O)CNC(=O)[C@H](CCCNC(=N)N)NC(=O)[C@H](CO)NC(=O)[C@H](C)NC(=O)[C@H](Cc1ccc(O)cc1)NC(=O)[C@H](Cc1c[nH]c2ccccc12)NC(=O)[C@H](C)NC(=O)[C@@H]1CCCN1C(=O)[C@H](CC(N)=O)NC(=O)[C@@H](NC(=O)[C@H](CC(=O)O)NC(=O)[C@@H]1CCCN1C(=O)[C@@H](NC(=O)[C@H](CCCNC(=N)N)NC(=O)[C@@H](NC(=O)[C@H](CCC(=O)O)NC(=O)[C@H](CCSC)NC(=O)[C@H](CO)NC(=O)[C@H](Cc1c[nH]cn1)NC(=O)[C@H](CCCNC(=N)N)NC(=O)[C@H](Cc1c[nH]cn1)NC(=O)[C@@H](NC(=O)[C@H](CCCNC(=N)N)NC(=O)[C@@H](N)CO)[C@@H](C)O)[C@@H](C)CC)[C@@H](C)O)[C@@H](C)CC)C(=O)N[C@@H](CCCNC(=N)N)C(=O)N1CCC[C@H]1C(=O)N[C@H](C(=O)NCC(=O)N[C@@H](CCCNC(=N)N)C(=O)N[C@@H](Cc1ccccc1)C(N)=O)C(C)C` [human PrRP31, reference compound] the value was 50 ± 24.3 nM.

The Ki is the equilibrium dissociation constant of an inhibitor or competing ligand from its target.
